According to US20190209501A1, “COMPOSITIONS AND METHODS OF USE OF BETA-HYDROXY-BETA-METHYLBUTYRATE (HMB) […] IN[…]” (Texas Tech University Office of Research Commercialization, priority 2018, published 2019):
“Also recorded” adds a separate entry of the source.

Columns and labels:
Format in all cases: in vivo, human
[1] = Muscle thickness of elbow flexors and knee extensors via ultrasonography; conditions: for MTEF ES (d) / MTKE ES (d): Cohen's d baseline vs week 8; for MTEF Δ (%) / MTKE Δ (%): change baseline to week 8 relative to baseline; for MTEF (cm) Week 8: muscle thickness elbow flexors; for MTEF (cm) Week 8 / MTKE (cm) Week 8: mean ± SE; for MTKE (cm) Week 8: muscle thickness knee extensors; for MTEF (cm) Δ / MTKE (cm) Δ: week 8 minus baseline
Procedure: In addition to whole-body composition estimates, muscle thickness of the elbow flexors (MTEF) and knee extensors (MTKE) was evaluated via ultrasonography (Logiq e, General Electric. Boston, Mass. USA) at baseline and study completion. […] These distances were measured while the participant was standing, and measurement distances at baseline were recorded and used at the final assessment. All assessments took place on the right side of the body. In the supine position, the participant's arm was abducted to ˜80° with the arm supported for elbow flexor measurements. For knee extensor measurements, a foam pad was placed beneath the knee to allow an ˜10° bend at the knee joint. For all assessments, transmission gel was generously applied to the marked measurement location, and minimal pressure was applied by the transducer in order to avoid tissue compression. Three single transverse images were taken at each location, with values averaged for analysis. The gain and depth of the transducer were kept consistent for all measurements at a given site. Ultrasound images were blinded for analysis and analyzed by a single blinded researcher using ImageJ (v. 1.52a; National Institutes of Health, USA). The reliability of the researcher analyzing ultrasound images was determined through blinded analysis of 28 randomly selected ultrasound images on two occasions. This exercise produced minimum differences (MD) of 0.07 cm for MTEF and 0.14 cm for MTKE.

[2] = Isokinetic squat peak force on mechanized squat device; conditions: for PFCON ES (d) / PFECC ES (d): Cohen's d baseline vs week 8; for PFCON Δ (%) / PFECC Δ (%): change baseline to week 8 relative to baseline; for PFCON (N) Week 4 / PFCON (N) Week 8: concentric peak force; for PFCON (N) Week 4 / PFCON (N) Week 8 / PFECC (N) Week 4 / PFECC (N) Week 8: mean ± SE; for PFECC (N) Week 4 / PFECC (N) Week 8: eccentric peak force; for PFCON (N) Δ / PFECC (N) Δ: week 8 minus baseline
From the text: Assessments of muscular performance took place between 12:00 and 18:00 in the non-fasted state, and participants were instructed to follow their preferred food and fluid intake patterns prior to testing. The assessment began with a 5-minute warm up period using a self-selected pace on a stationary bicycle. This warm up period was followed by assessment of countermovement vertical jumps (CMVJ) performance, testing on a mechanized squat device, and muscular strength and endurance assessment on the bench press and hip sled exercises. At the 4-week assessment, the CMVJ and hip sled assessments were not performed.
Isometric and isokinetic squats were performed using a mechanized squat device (Exerbotics eSq, Tulsa, Okla., USA) (31, 32). At the first assessment, each participant's preferred foot positioning was determined using a custom grid overlaid on the foot platform of the squat device. This foot positioning was recorded and utilized for all visits. No weight belts, knee wraps, or other aids were utilized during testing. Prior to testing, the participant's range of motion for isokinetic testing was determined. The range of motion was set to 90° between the thigh and lower leg at the bottom of the repetition and approximately 170° at the top of the repetition, as determined by a goniometer. The isometric testing included maximal effort pushes at 120° and 150° knee angles. Each participant was instructed to push against the device as hard and fast as possible while attempting to complete a squat movement. Two isometric pushes were performed at each knee angle, and each effort lasted approximately 2 to 3 seconds. After the isometric testing, a 3-repetition maximum isokinetic force production test was completed. Prior to testing, participants observed the movement of the machine and received verbal instruction regarding proper performance of the assessment. Each of the repetitions during the maximal isokinetic force production test consisted of a 4-second eccentric phase, followed by an approximately half-second pause at the 90° knee position and a 4-second concentric phase. During testing, the force signal was sampled from the load cell at 1 kHz (MP100; Biopac Systems, Inc, Santa Barbara, Calif., USA), stored on a personal computer, and processed off-line using custom-written software (LabVIEW, Version 11.0; National Instruments, Austin, Tex., USA). The scaled force signal was low-pass filtered, with a 10-Hz cutoff (zero-phase lag, fourth-order Butterworth filter). All subsequent analyses were conducted on the scaled and filtered force signal. For the isometric force production tests, the rate of force development (RFD) over specific time intervals (i.e. 30, 50, 100 and 200 ms) was calculated by manually specifying the onset of force production within the custom LabVIEW program. For each repetition of the maximum isokinetic force production test, isokinetic peak forces (PF) were determined as the highest mean 25-ms epoch for both concentric and eccentric testing (i.e. PFCONC and PFECC).

[3] = Reported side effects / adverse events

SMILES: CC(C)(O)CC(=O)O [TRFHMB, β-hydroxy-β-methylbutyrate]
- MTEF ES (d) ([1]; ITT analysis): 0.68
- MTKE ES (d) ([1]; ITT analysis): 0.33
- MTEF Δ (%) ([1]; ITT analysis): 8%
- MTKE Δ (%) ([1]; ITT analysis): 5%
- MTEF (cm) Week 8 ([1]; ITT analysis): 2.96 ± 0.09 cm
- MTKE (cm) Week 8 ([1]; ITT analysis): 4.33 ± 0.16 cm
- MTEF (cm) Δ ([1]; ITT analysis): 0.22 cm
- MTKE (cm) Δ ([1]; ITT analysis): 0.19 cm
- MTEF ES (d) ([1]; PP analysis): 0.86
- MTKE ES (d) ([1]; PP analysis): 0.31
- MTEF Δ (%) ([1]; PP analysis): 9%
- MTKE Δ (%) ([1]; PP analysis): 4%
- MTEF (cm) Week 8 ([1]; PP analysis): 2.97 ± 0.10 cm
- MTKE (cm) Week 8 ([1]; PP analysis): 4.44 ± 0.20 cm
- MTEF (cm) Δ ([1]; PP analysis): 0.24 cm
- MTKE (cm) Δ ([1]; PP analysis): 0.17 cm
- Average effect size for tests of lower body force generation (1RMLP, PFCON, PFECC, RFD) ([2]; Cohen's d, vs 0.3-0.4 in TRF or CD): 0.6-0.7
- PFCON ES (d) ([2]; ITT analysis): 0.83
- PFECC ES (d) ([2]; ITT analysis): 0.60
- PFCON Δ (%) ([2]; ITT analysis): 29%
- PFECC Δ (%) ([2]; ITT analysis): 19%
- PFCON (N) Week 4 ([2]; ITT analysis): 1195 ± 92 N
- PFCON (N) Week 8 ([2]; ITT analysis): 1324 ± 112 N
- PFECC (N) Week 4 ([2]; ITT analysis): 1301 ± 93 N
- PFECC (N) Week 8 ([2]; ITT analysis): 1407 ± 95 N
- PFCON (N) Δ ([2]; ITT analysis): 295 N
- PFECC (N) Δ ([2]; ITT analysis): 223 N
- PFCON ES (d) ([2]; PP analysis): 0.95
- PFECC ES (d) ([2]; PP analysis): 0.48
- PFCON Δ (%) ([2]; PP analysis): 31%
- PFECC Δ (%) ([2]; PP analysis): 14%
- PFCON (N) Week 4 ([2]; PP analysis): 1247 ± 133 N
- PFCON (N) Week 8 ([2]; PP analysis): 1418 ± 154 N
- PFECC (N) Week 4 ([2]; PP analysis): 1311 ± 136 N
- PFECC (N) Week 8 ([2]; PP analysis): 1475 ± 133 N
- PFCON (N) Δ ([2]; PP analysis): 336 N
- PFECC (N) Δ ([2]; PP analysis): 184 N
- Reported side effects at W4 ([3]; week 4, n=1 each): morning fatigue; also recorded: bloated stomach
- Reported side effects at W8 ([3]; week 8, n=1): bloated stomach
